Test results: the NIST ThermoML archive (doi:10.1016/j.jct.2007.06.014)

Conditions: Liquid, Bellows volumetry

CCCC [butane]
mass density [kg/m3]
Conditions	380 K	400 K	420 K	440 K
3000 kPa	463.27	–	–	–
5000 kPa	474.65	437.19	–	–
10000 kPa	494.93	466.97	436.16	401.28
20000 kPa	521.9	500.93	479.15	457.43
30000 kPa	–	522.83	504.89	487.23
40000 kPa	555.85	539.73	523.9	508.57
50000 kPa	–	553.54	539.08	525.26
60000 kPa	579.32	565.44	551.8	539.13
70000 kPa	–	575.77	563.07	551.03
80000 kPa	597.57	585.08	572.94	561.56
90000 kPa	–	593.33	581.86	571.14
100000 kPa	612.79	601.18	589.89	579.66
120000 kPa	625.93	614.9	604.27	594.85
140000 kPa	637.29	627.05	617.11	608.04
160000 kPa	647.82	637.77	628.25	619.73
180000 kPa	657.28	647.6	638.65	630.34
200000 kPa	665.98	656.49	647.73	639.98
